≈ marks a conversion by molar mass, not a printed value.
How the values were obtained:
[1] = system: Bacillus subtilis (ATCC-6633); assay: Antibacterial assay, micro broth dilution; assay type: cell-based; set-up: key to Antibacterial activity, Bacillus subtilis: Activity: Active = Bacterial activity; --- = no activity; conditions: 25 μg/mL
Text: (§1) The micro broth dilution method was used to establish the antibacterial potential of test samples against Staphylococcus aureus (ATCC-6538), Bacillus subtilis (ATCC-6633), Escherichia coli (ATCC-25922), Klebsiella pneumoniae (ATCC-1705), and Pseudomonas aeruginosa (ATCC-15442) and for the resistant strains of MRSA Staphylococcus aureus, P. aeruginosa and Escherichia coli. The procedure used is described by ([Sarker et al., 2007]). Bacterial inoculum was formed under aseptic conditions keeping the density near 5 × 10^4 CFU/mL in pre-autoclaved nutrient broth. Test samples of an aliquot of 5 µL were shifted to labeled wells of 96 well plates, and after that addition of 195 µL of nutrient broth; was accomplished. After that, a 2-fold serial dilution of every sample was arranged to get final concentrations of 12.5 μg/mL. Then, with the help of a micropipette, 195 µL of bacterial culture of respective strains was poured into each well; further advancement was incubating of plates for 30 min at the temperature of 37°C. […] Incubation of plates was again carried out at 37°C for 1 day, absorbance was noted, and net change in turbidity was the difference between two values of absorbance.
(§2) Schiff base tri-azo compounds were investigated for antibacterial potential. […] 6.25 μg/mL for 5b and 5g, and the least, Table 4 3.12 μg/mL was for 5f. […] Substituents with electron-withdrawing attributes, e.g., -NO2, -Cl, -OH on the aromatic ring, assert a great impact on the antibacterial activity of synthetic compounds. It is also observed that an increase in the number of -OH groups tend to enhance the activity ([Hosamani and Shingalapur, 2011]). Due to the difference in cell-wall composition of Gram + ve and -ve bacteria, different compounds show different features towards the same micro-organism ([Goszczyn’ska et al., 2015]).

[2] = Total reducing power (TRP assay); conditions: mean ± SD
Protocol: The process used for TRP was illustrated by ([Bibi et al., 2011]). The […] method is used for 100 μL of each solution, 200 μL Phosphate buffer (0.2 M, pH 6.6), and 250 μL of potassium ferricyanide was mixed and incubated at 50°C for 20 min, to this solution, 10 percent (200 μL) trichloroacetic acid was added, centrifugation was done at 3,000 rpm for 10 min, the supernatant was collected, added with FeCl3 (50 μL), and shifted to the microplate. Absorbance was recorded at 700 nm. Ascorbic acid (100 μg/mL DMSO) is the +ve control for the test, and dimethyl sulfoxide (DMSO) is the blank.
The primary mechanism of TRP assay is based on the compound’s capacity to reduce free radicals, which are generated during the procedure. i.e., Fe^3+ is reduced to Fe^2+ ([Lee et al., 2015]). Various factors determine the antioxidant potential of the compound; a few to explain include the chemical attributes, nature of antioxidant moieties, conditions and mechanism of the reaction, which accounts for the reason for a compound’s activity in one assay and none-to-less response in the other ([Francenia Santos-Sanchez et al., 2019]). However, compounds with hydroxyl and methoxy groups form the bases for potential candidates as an antioxidant ([Rakesh et al., 2015]).

[3] = system: Klebsiella pneumoniae (ATCC-1705); assay: Antibacterial assay, micro broth dilution; assay type: cell-based
Text: as §1, §2

[4] = system: Staphylococcus aureus (ATCC-6538); assay: Antibacterial assay, micro broth dilution; assay type: cell-based; set-up: key: Active = Bacterial activity; --- = no activity; conditions: 25 μg/mL
[5] = system: Streptomyces 85 E strains; assay: Protein kinase inhibition assay; assay type: cell-based; set-up: key: Active = Bacterial activity; --- = no activity; conditions: Sample Concentration = 20 μg/mL; Surfactin B 20 μg/mL
Protocol: The protocol followed for this is mentioned ([Fatima et al., 2015]). To assess the test compound’s inhibitory potential, Streptomyces 85 E strains were used, which were refreshed in tryptone soya broth at 37 for 1 day. Spores from refreshed cultures were utilized to prepare the bacterial culture. 100 μg compound was loaded on 5 mm discs of filter paper. These were kept on sowed plates. DMSO-permeated discs were the -ve control. The incubation period was 7 days, and outcomes were stated as bald and clear zones of inhibition.
These synthetic products were evaluated to estimate the inhibitory potential for protein kinase of […] 85 E. Protein kinase is involved with the mycelium production of this species, so the growth patterns were observed as the bald zone. […] One of the propitious targets in cancer treatment is the inhibition of protein kinases. Protein phosphorylation by protein kinases at various residues regulates diverse biological processes, which may include apoptosis, proliferation and differentiation of cells. Deregulation at any step in early tumorigenesis may lead to cancer ([Yao et al., 2011]). Aerial hyphae formation in Streptomyces depends upon protein kinase activity; this scenario is exploited in this test; to inquire about these compounds’ kinase inhibition potential and to look at their anti-cancer potential. The advantage of using Streptomyces for kinase inhibition assay is its predisposition to a wide range of eukaryotic cells. Whole-cell assay of Streptomyces not only identifies the compound’s cytotoxic potential but also identifies signal transduction inhibitors for various activities, e.g., antitumor, anti-mycobacterial, and anti-infective ([Waters et al., 2002]). […] Activity with a bald zone of 10.5 mm and a clear zone of 7.5 mm, following is 5a with a bald zone of 9 mm and a clear zone of 6 mm, and for 5g, values are 7.5 and 6 mm, respectively. It means that these compounds have the potential for protein kinase inhibition as well as the toxicity of the compound.

MIC ([3]; ATCC1705) [µg/mL] | MIC ([3]; ATCC1705, 24 h) [µg/mL] | Structure (SMILES) | Antibacterial activity, Bacillus subtilis: Activity [1] | TRP [2] [µg AAE/mg] | Antibacterial activity, S. aureus: Activity [4] | Clear zone [5]
6.25 (≈ 14.8 µM) |  | COc1cc(C=Nn2c(Cc3c[nH]c4ccccc34)n[nH]c2=S)cc(OC)c1OC [Compound 5g] | --- | 642.67 ± 0.001 | Active | 
12.5 (≈ 35.8 µM) |  | Oc1cccc(C=Nn2c(Cc3c[nH]c4ccccc34)n[nH]c2=S)c1 [Compound 5a] |  | 592.26 ± 0.007 |  | 6 mm
3.12 (≈ 8.48 µM) | 3.12 (≈ 8.49 µM) | S=c1[nH]nc(Cc2c[nH]c3ccccc23)n1N=Cc1cccc(Cl)c1 [Compound 5f] | --- |  | Active | ---
12.5 (≈ 34 µM) |  | S=c1[nH]nc(Cc2c[nH]c3ccccc23)n1N=Cc1ccc(Cl)cc1 [Compound 5c] |  |  | --- | ---
12.5 (≈ 35.8 µM) |  | Oc1ccc(C=Nn2c(Cc3c[nH]c4ccccc34)n[nH]c2=S)cc1 [Compound 5e] | --- | 619.18 ± 0.010 | --- | ---
12.5 (≈ 33 µM) |  | O=[N+]([O-])c1ccc(C=Nn2c(Cc3c[nH]c4ccccc34)n[nH]c2=S)cc1 [Compound 5d] |  |  | --- | ---
6.25 (≈ 17.2 µM) |  | COc1cccc(C=Nn2c(Cc3c[nH]c4ccccc34)n[nH]c2=S)c1 [Compound 5b] | --- | 706.42 ± 0.004 | --- | 7.5 mm
